Values after ≈ are worked out from the molar mass of the structure shown. Active and inactive are the calls of the source. The calls are words filed in the database; no cut-off is given here.
What was measured:
Staphylococcus aureus [1] = experiment: Antibacterial activity against methicillin-resistant Staphylococcus aureus CCARM3506 up to 100 ug/mL after 24 hrs; type: functional, organism-based
Staphylococcus aureus [2] = experiment: Antibacterial activity against Staphylococcus aureus 503 up to 100 ug/mL after 24 hrs; type: functional, organism-based
Staphylococcus aureus [3] = experiment: Antibacterial activity against methicillin-sensitive Staphylococcus aureus CCARM3505 up to 100 ug/mL after 24 hrs; type: functional, organism-based
Staphylococcus aureus [4] = experiment: Antibacterial activity against methicillin-sensitive Staphylococcus aureus CCARM3519 up to 100 ug/mL after 24 hrs; type: functional, organism-based
Staphylococcus aureus [5] = experiment: Antibacterial activity against Staphylococcus aureus RN4220 up to 100 ug/mL after 24 hrs; type: functional, organism-based
Staphylococcus aureus [6] = experiment: Antibacterial activity against methicillin-resistant Staphylococcus aureus CCARM3167 up to 100 ug/mL after 24 hrs; type: functional, organism-based
Staphylococcus aureus [7] = experiment: Antibacterial activity against methicillin-resistant Staphylococcus aureus CCARM3167 after 24 hrs; type: functional
Staphylococcus aureus [8] = experiment: Antibacterial activity against methicillin-resistant Staphylococcus aureus CCARM3506 after 24 hrs; type: functional
Staphylococcus aureus [9] = experiment: Antibacterial activity against methicillin-sensitive Staphylococcus aureus CCARM3519 after 24 hrs; type: functional
Staphylococcus aureus [10] = experiment: Antibacterial activity against Staphylococcus aureus 503 after 24 hrs; type: functional
Staphylococcus aureus [11] = experiment: Antibacterial activity against Staphylococcus aureus RN4220 after 24 hrs; type: functional; conditions: RN4220, 24 h
Staphylococcus aureus [12] = experiment: Antibacterial activity against methicillin-sensitive Staphylococcus aureus CCARM3505 after 24 hrs; type: functional

SMILES | Activity (Staphylococcus aureus [1]) | Activity (Staphylococcus aureus [2]) | Activity (Staphylococcus aureus [3]) | Activity (Staphylococcus aureus [4]) | Activity (Staphylococcus aureus [5]) | Activity (Staphylococcus aureus [6]) | MIC (Staphylococcus aureus [7]) [µg/mL] | MIC (Staphylococcus aureus [8]) [µg/mL] | MIC (Staphylococcus aureus [9]) [µg/mL] | MIC (Staphylococcus aureus [10]) [µg/mL] | MIC (Staphylococcus aureus [11]) [µg/mL] | MIC (Staphylococcus aureus [12]) [µg/mL]
CS[C@H]1C(=O)N2[C@H]3Nc4ccccc4[C@@]3(c3c[nH]c4ccccc34)[C@H](O)[C@]2(SC)C(=O)N1C | inactive | inactive | inactive | inactive | inactive | inactive | – | – | – | – | – | –
CN1C(=O)[C@]23SS[C@H]1C(=O)N2[C@H]1Nc2ccccc2[C@@]1(c1c[nH]c2ccccc12)[C@@H]3O [BIONECTIN A] | – | – | – | – | – | – | 30 (≈ 66.6 µM) | 30 (≈ 66.6 µM) | 10 (≈ 22.2 µM) | 10 (≈ 22.2 µM) | 10 (≈ 22.2 µM) | 10 (≈ 22.2 µM)
CC(O)[C@@]12SS[C@]3(C(=O)N1C)[C@@H](O)[C@]1(c4c[nH]c5ccccc45)c4ccccc4N[C@@H]1N3C2=O (stereo not given in full) [BIONECTIN B] | – | – | – | – | – | – | 10 (≈ 20.2 µM) | 10 (≈ 20.2 µM) | 30 (≈ 60.7 µM) | 30 (≈ 60.7 µM) | 30 (≈ 60.7 µM) | 30 (≈ 60.7 µM)
CN[C@H](CC(C)C)C(=O)N[C@H]1C(=O)N[C@@H](CC(N)=O)C(=O)N[C@H]2C(=O)N[C@H]3C(=O)N[C@H](C(=O)N[C@H](C(=O)O)c4cc(O)cc(O)c4-c4cc3ccc4O)[C@H](O)c3ccc(c(Cl)c3)Oc3cc2cc(c3O[C@@H]2O[C@H](CO)[C@@H](O)[C@H](O)[C@H]2O[C@H]2C[C@](C)(N)[C@H](O)[C@H](C)O2)Oc2ccc(cc2Cl)[C@H]1O [VANCOMYCIN] | – | – | – | – | – | – | – | – | – | 0.25 (≈ 0.173 µM) | – | –
CC(O)[C@@]12SS[C@]3(C(=O)N1C)[C@@H](O)C1([C@@]45c6ccccc6N[C@@H]4N4C(=O)[C@]6(C(C)O)SS[C@]4(C(=O)N6C)[C@H]5O)c4ccccc4N[C@@H]1N3C2=O (stereo not given in full) [VERTICILLIN D] | – | – | – | – | – | – | 3 (≈ 3.96 µM) | 3 (≈ 3.96 µM) | 10 (≈ 13.2 µM) | 3 (≈ 3.96 µM) | 3 (≈ 3.96 µM) | 10 (≈ 13.2 µM)
